The text below walks through data of patent US20100267725A1, “Compounds, Compositions and Methods Comprising 4N-Substituted Triazole Derivatives” (Institute for OneWorld Health, priority 2009, published 2010).

pIC50: −log10 of the molar value.

The target of this experiment is T1, CFTR channel (Homo sapiens, UniProt P13569).
T1 construct: host or cells: Human colonic T84 cells
Description: T84 assay (FLIPR membrane potential dye, forskolin/IBMX-stimulated CFTR channel activity). It counts as cell-based. Conditions: Human colonic T84 cells; CFTR stimulated with 10 μM forskolin + 100 μM IBMX. The procedure:
(§1) For example, Human colonic T84 cells can be acquired from the European Collection of Cell Cultures (ECACC) and grown in standard culture conditions as described by the supplier. On the day before assay 25,000 T84 cells per well are plated into standard black walled, clear bottom 384-well assay plates in standard growth medium consisting of DMEM:F12 with 10% FBS and incubated overnight. On the day of the assay the plates are washed using a standard assay buffer (HBSS with 10 mM Hepes) and incubated for 15 minutes in serum free cell culture medium before the addition of a commercially available membrane potential sensitive fluorescent dye (FLIPR Red membrane potential dye, Molecular Devices Corporation). T84 cells are incubated with the FLIPR Red membrane potential dye for 45 minutes in the presence and absence of test compound before being transferred to a commercially available fluorescence imaging plate reader (FLIPR384, Molecular Devices Corporation). Fluorescence levels are monitored continuously every second for 150 seconds; after an initial 10 second baseline, CFTR channel activity is stimulated through the addition of 10 μM forskolin in the presence of 100 μM of the phosphodiesterase inhibitor iso-butyl-methylxanthine (IBMX). Addition of the forskolin leads to the activation of intracellular adenylyl cylase 1, elevating cAMP levels and results in the phosphorylation and opening of CFTR anion channels. CFTR channel opening causes chloride ion efflux and subsequent depolarization of the cells, which is measured by an increase in fluorescence. CFTR inhibitor compounds prevent cell depolarization and the associated increase in fluorescence.
as §1, with “Human colonic” for “For example, Human colonic”, “T84 cells are acquired from” for “T84 cells can be acquired from”, “(ECACC) and are grown in” for “(ECACC) and grown in”

T1 sequence (P13569 whole entry): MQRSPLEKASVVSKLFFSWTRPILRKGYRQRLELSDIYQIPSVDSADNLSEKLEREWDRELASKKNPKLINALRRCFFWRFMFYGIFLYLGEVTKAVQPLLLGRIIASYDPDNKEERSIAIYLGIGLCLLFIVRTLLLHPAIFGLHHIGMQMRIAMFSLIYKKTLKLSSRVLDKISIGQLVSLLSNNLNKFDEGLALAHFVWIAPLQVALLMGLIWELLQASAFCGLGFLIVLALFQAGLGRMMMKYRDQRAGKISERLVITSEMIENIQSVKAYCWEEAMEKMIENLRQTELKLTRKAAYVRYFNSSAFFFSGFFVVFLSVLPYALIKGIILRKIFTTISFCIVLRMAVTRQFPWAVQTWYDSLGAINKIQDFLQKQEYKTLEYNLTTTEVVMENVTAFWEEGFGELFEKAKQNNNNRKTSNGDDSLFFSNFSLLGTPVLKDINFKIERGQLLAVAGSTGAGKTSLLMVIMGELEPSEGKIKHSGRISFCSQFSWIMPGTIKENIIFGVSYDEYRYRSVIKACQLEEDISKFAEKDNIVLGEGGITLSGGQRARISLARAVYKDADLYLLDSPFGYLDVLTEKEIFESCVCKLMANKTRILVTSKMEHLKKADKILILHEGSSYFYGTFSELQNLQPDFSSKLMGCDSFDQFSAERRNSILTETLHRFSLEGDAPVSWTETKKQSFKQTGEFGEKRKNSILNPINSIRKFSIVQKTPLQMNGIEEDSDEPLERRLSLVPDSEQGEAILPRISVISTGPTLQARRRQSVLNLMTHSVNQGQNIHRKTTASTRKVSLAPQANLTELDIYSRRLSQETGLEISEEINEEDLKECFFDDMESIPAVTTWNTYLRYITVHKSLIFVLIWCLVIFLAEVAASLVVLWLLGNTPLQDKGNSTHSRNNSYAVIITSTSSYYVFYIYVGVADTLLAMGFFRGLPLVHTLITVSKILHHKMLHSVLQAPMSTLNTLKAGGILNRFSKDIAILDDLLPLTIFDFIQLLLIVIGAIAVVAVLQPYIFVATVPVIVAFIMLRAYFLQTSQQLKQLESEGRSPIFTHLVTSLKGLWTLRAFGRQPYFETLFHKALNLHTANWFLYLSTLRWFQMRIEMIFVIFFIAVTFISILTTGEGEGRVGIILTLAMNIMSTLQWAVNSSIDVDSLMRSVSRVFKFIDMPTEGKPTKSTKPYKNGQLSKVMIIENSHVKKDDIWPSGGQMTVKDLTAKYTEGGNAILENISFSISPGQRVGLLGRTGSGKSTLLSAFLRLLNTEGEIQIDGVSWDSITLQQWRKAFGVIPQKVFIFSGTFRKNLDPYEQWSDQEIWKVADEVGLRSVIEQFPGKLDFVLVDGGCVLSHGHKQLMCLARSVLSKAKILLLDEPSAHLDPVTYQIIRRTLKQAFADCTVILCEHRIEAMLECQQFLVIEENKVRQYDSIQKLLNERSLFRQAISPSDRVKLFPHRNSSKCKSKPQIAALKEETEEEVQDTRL

Regarding `O=C(NCc1ccc(Oc2ccccc2)cc1)c1nnc(-c2cc(Cl)c(O)c(Cl)c2)n1Cc1ccccc1` [Compound 1, 4-benzyl-5-(3,5-dichloro-4-hydroxyphenyl)-N-(4-phenoxybenzyl)-4H-1,2,4-triazole-3-carboxamide], the pIC50 was 5.15. As for `CN(C)c1cccc(Cn2c(C(=O)NCc3ccc(Oc4ccccc4)cc3)nnc2-c2cc(Cl)c(O)c(Cl)c2)c1` [Compound 2, 5-(3,5-dichloro-4-hydroxyphenyl)-4-(3-(dimethylamino)benzyl)-N-(4-phenoxybenzyl)-4H-1,2,4-triazole-3-carboxamide], the figure is 5.17; as for `O=C(NCc1ccc(Oc2ccccc2)cc1)c1nnc(-c2cc(Cl)c(O)c(Cl)c2)n1Cc1cccnc1` [Compound 3, 5-(3,5-Dichloro-4-hydroxyphenyl)-N-(4-phenoxybenzyl)-4-(pyridin-3-ylmethyl)-4H-1,2,4-triazole-3-carboxamide], 5.14; as for `O=C(NCc1ccc(Oc2ccccc2)cc1)c1nnc(-c2cc(Cl)c(O)c(Cl)c2)n1Cc1ccccn1` [Compound 4, 5-(3,5-dichloro-4-hydroxyphenyl)-N-(4-phenoxybenzyl)-4-(pyridin-2-ylmethyl)-4H-1,2,4-triazole-3-carboxamide], 4.89. The result for `COc1ccc(-n2c(C(=O)NCc3ccc(Oc4ccccc4)cc3)nnc2-c2cc(Cl)c(O)c(Cl)c2)cn1` [Compound 5, 5-(3,5-dichloro-4-hydroxyphenyl)-4-(6-methoxypyridin-3-yl)-N-(4-phenoxybenzyl)-4H-1,2,4-triazole-3-carboxamide] reads 5.11. The result for `O=C(NCc1ccc(Oc2ccccc2)cc1)c1nnc(-c2cc(Cl)c(O)c(Cl)c2)n1Cc1ccc(CN2CCOCC2)cc1` [Compound 6, 5-(3,5-dichloro-4-hydroxyphenyl)-4-(4-(morpholinomethyl)benzyl)-N-(4-phenoxybenzyl)-4H-1,2,4-triazole-3-carboxamide] reads 4.89.

A word on the pIC50: it is the IC50 on a negative log10 scale, so that one unit is a factor of ten.
